Results from patent publication US20250152650A1, “COMPOSITIONS FOR TREATING SEA LICE IN SALMON AND RELATED METHODS” (KEMIN INDUSTRIES, INC., priority 2023, published 2025).
Read-outs that look alike come from different tables or passages of the source.

Assays:
[1] = system: mobile stage sea lice (adults and pre-adults); assay: Mobile stages bioassay; design: species or system Lepeophtheirus salmonis
[2] = system: L. salmonis copepodids of Canadian origin; assay: Copepodid bioassay, copepodids of Canadian origin; design: species or system Lepeophtheirus salmonis; conditions: for Mean proportion of survival: 24 hours exposure
[3] = system: copepodid sea lice; conditions: 10 parts per trillion, purified compounds; cited from earlier work
[4] = system: sea lice; assay: In-feed trial with sea lice challenge in Atlantic salmon; assay type: in vivo, Atlantic salmon (Salmo salar); conditions: for Reduction Versus Control: reduction in mean number of lice at 6-7 dpi versus Control Diet; for Reduction Versus Control / Reduction Versus SLICE: diet doses as in Table 10; for Reduction Versus SLICE: reduction in mean number of lice at 6-7 dpi versus SLICE (10 ppm) diet; for Mean Number of Lice: total copepodid and chalimus lice per fish at 6-7 dpi, study diet fed 3 weeks before challenge with approx. 140 lice per fish, O-LD oregano oil 2000 ppm, O-HD 5000 ppm, M-LD Monarda fistulosa oil 2000 ppm, thymol 1000 ppm, thymoquinone 500 ppm, SLICE 10 ppm
[5] = system: copepodids of Norwegian origin; conditions: for Mean proportion of survival: 24 hours exposure
[6] = system: copepodids of Norwegian origin; assay: whole plant or invertebrate; conditions: Lepeophtheirus salmonis, 24 h, read-out: lethality / lice mortality
[7] = system: salmon; conditions: farmed salmon; cited from earlier work

| Compound | Mean proportion of survival ([1]; 10 ppm, 6 hours exposure) | Mean proportion of survival ([1]; 10 ppm, 24 hours exposure) | masking of copepodid attraction to hosts or alpha-isophorone conditioned seawater [3] | Reduction Versus Control [4] | Reduction Versus SLICE [4] | Mean Number of Lice [4] | Mean proportion of survival ([1]; 1 ppb, 6 hours exposure) | Mean proportion of survival ([1]; 1 ppb, 24 hours exposure) | Mean proportion of survival ([1]; 1 ppm, 6 hours exposure) | Mean proportion of survival ([1]; 1 ppm, 24 hours exposure) | Mean proportion of survival ([1]; 10 ppb, 6 hours exposure) | Mean proportion of survival ([1]; 10 ppb, 24 hours exposure) | Mean proportion of survival ([1]; 100 ppb, 6 hours exposure) | Mean proportion of survival ([1]; 100 ppb, 24 hours exposure) | Mean proportion of survival ([5]; 0.01 ppb) | Mean proportion of survival ([5]; 0.1 ppb) | Mean proportion of survival ([5]; 1 ppb) | Mean proportion of survival ([5]; 1 ppm) | Mean proportion of survival ([5]; 10 ppb) | Mean proportion of survival ([5]; 10 ppm) | other results |
| --- | --- | --- | --- | --- | --- | --- | --- | --- | --- | --- | --- | --- | --- | --- | --- | --- | --- | --- | --- | --- | --- |
| C=CCSSCC=C [Diallyl disulfide, diallyl disulfide] | 100.0 ± 0.0% | 96.7 ± 4.7% | masked copepodid sea lice attraction to hosts |  |  |  |  |  |  |  |  |  |  |  |  |  |  |  |  |  | survival compared to control, in words ([1]; 10 and 100 ppm): did not result in different survival compared to control; Mean proportion of survival ([1]; 100 ppm, 6 hours exposure): 96.2 ± 5.4%; Mean proportion of survival ([1]; 100 ppm, 24 hours exposure): 88.7 ± 5.8%; Mean proportion of survival ([2]; 1 ppb): 96.9 ± 2.7%; Mean proportion of survival ([2]; 1 ppm): 86.3 ± 4.0%; Mean proportion of survival ([2]; 10 ppb): 93.6 ± 8.0%; Mean proportion of survival ([2]; 10 ppm): 34.6 ± 6.4%; Mean proportion of survival ([2]; 10 ppm, listed as DD): 34.6%; Mean proportion of survival ([2]; 100 ppb): 95.2 ± 4.6%; Mean proportion of survival ([2]; 100 ppm (0.01%)): 17.4 ± 3.2%; Mean proportion of survival ([2]; 100 ppm (0.01%), listed as DD): 17.4% |
| Cc1ccc(C(C)C)c(O)c1 [Thymol] | 23.7 ± 6.9% |  |  | 1.2% | −14.6% | 86.5 | 100.0 ± 0.0% | 96.2 ± 5.4% | 92.8 ± 0.7% | 92.8 ± 0.7% | 95.8 ± 5.9% | 88.1 ± 5.0% | 97.1 ± 4.2% | 97.1 ± 4.2% | 98.7 ± 2.2% | 93.9 ± 4.4% | 100.0 ± 0.0% | 87.9 ± 3.9% | 93.1 ± 9.3% | 56.1 ± 2.0 % | Mean proportion of survival ([1]; 1 ppm, 24 hours exposure, listed as thymol): not significantly different to control; Mean proportion of survival ([5]; 100 ppb): 84.4 ± 6.1% |
| CC1=CC(=O)C(C(C)C)=CC1=O [Thymoquinone] | 60.7 ± 5.1% | 0.0 ± 0.0 % |  | 1.7% | 21.7% | 59.1 | 93.3 ± 9.4% | 93.3 ± 9.4% | 100.0 ± 0.0% | 83.7 ± 14.7% | 81.7 ± 5.4% | 87.1 ± 5.4% | 91.7 ± 2.4% | 91.7 ± 2.4% | 98.1 ± 3.2% | 98.6 ± 2.4% | 97.3 ± 2.5% | 75.6 ± 9.3 % | 100.0 ± 0.0% | 0.0 ± 0.0 % | mortality at 10 ppm [6]: 100%; Mean proportion of survival ([1]; 1 ppm, 24 hours exposure, listed as thymoquinone): not significantly different to control; Mean proportion of survival ([1]; 10 ppm, 24 hours exposure, listed as thymoquinone): completely lethal; Mean proportion of survival ([5]; 1 ppm, listed as thymoquinone): did not result in a biologically significant reduction in survival; Mean proportion of survival ([5]; 100 ppb): 92.9 ± 9.1% |
| C=CCSCC=C [diallyl sulfide] |  |  | masked copepodid sea lice attraction to hosts |  |  |  |  |  |  |  |  |  |  |  |  |  |  |  |  |  |  |
| OO [hydrogen peroxide] |  |  |  |  |  |  |  |  |  |  |  |  |  |  |  |  |  |  |  |  | mortality caused by a single treatment [7]: 1% |
| emamectin benzoate [EMB, reference compound] |  |  |  |  |  |  |  |  |  |  |  |  | 96.7 ± 4.7% |  |  | 0.0 ± 0.0% | 0.0 ± 0.0% |  | 0.0 ± 0.0% |  | Mean proportion of survival ([1]; 200 ppb, 6 hours exposure): 56.7 ± 4.7%; Mean proportion of survival ([1]; 200 ppb, 24 hours exposure): 53.3 ± 18.9%; Mean proportion of survival ([1]; 400 ppb, 6 hours exposure): 36.7 ± 14.1%; Mean proportion of survival ([1]; 400 ppb, 24 hours exposure): 23.3 ± 4.7%; Mean proportion of survival ([1]; 500 ppb, 24 hours, follow up trial): 46.9 ± 9.8%; survival, range over the dilution set ([2]; 0.5-50 ppb, 24 hours): 35.5-53.2%; Mean proportion of survival ([2]; 0.5 ppb): 53.2 ± 10.2%; Mean proportion of survival ([2]; 5 ppb): 50.7 ± 6.1%; Mean proportion of survival ([2]; 50 ppb): 35.5 ± 2.1%; survival, in words ([5]; all tested concentrations between 10 and 0.1 ppb): no survival |
